Entries after “also recorded” stand apart in the source; their conditions may differ. Read-outs that look alike come from different tables or passages of the source.
How the values were obtained:
CYP1A [1] = assay: in vitro; details: nude, mouse
Text: (§1) Nude mice were sacrificed by decapitation.
(§2) The precipitate containing the microsomes was obtained.

CYP1A [2] = assay: Liver microsomal CYP1A enzymatic activity, inhibition or enhancement; details: nude, mouse
Description: (§3) Nude mice were sacrificed by decapitation. The skin and liver were immediately removed and kept in ice bath or 4° C. […] Connective tissue, blood, and fat were carefully removed from the tissue. Excess water content was removed from the homogenized tissue by tissue papers before the tissue was weighed.
(§4) The suspension of homogenized tissue in potassium chloride solution was transferred into a Teflon pestle-glass homogenizer for homogenization for six (6) times. Then, potassium chloride solution was added into the homogenized suspension to bring the volume to about four (4) times of the homogenized suspension. The diluted suspension was 5 transferred into a centrifuge tube and centrifuged at 4° C., 9000 xg, for twenty (20) minutes. The supernatant containing microsomes from skin or liver tissue and other soluble substance were removed and the volume of the supernatant was brought up to four (4) times of the weight of the tissue by adding potassium chloride solution. The diluted supernatant was transferred into a centrifuge tube and centrifuged at 4° C., 100,000 xg, for one (1) hour (Beckman L8-80M). The precipitate containing the microsomes was obtained. Potassium chloride solution was added into the precipitate to bring the volume up to four (4) times of the weight of the tissue, and the suspension was centrifuged at 4° C., 100,000 xg for one (1) hour, to obtain the washed microsomes, which were stored at −78° C. in 0.1M KH2PO4-K2HPO4 buffer (pH=7.4).
(§5) The enzymatic activity of CYP1A was determined based on the activity of 7-ethoxyresorufin-O-deethylase (i.e., for CYP1A) and 7-methoxyresorufin-O-demethylase (i.e., CYP1A2). […] Except for the blank group, the reaction was triggered by adding 0.54 μM NADPH. In the test tube (16×100 mm), the reaction was carried out for ten (10) minutes at constant temperature (37° C.) with vibration and without light Methanol 2.5 ml was added into the reaction mixture to stop the reaction. Protein precipitate was removed from the reaction mixture by centrifuging the reaction mixture at 180 xg for ten (10) minutes. The supernatant was tested for florescent intensity with 550 nm as the excitation wavelength and 585 nm the emission wavelength. The florescent intensity was compared with 0.01 μM-0.1 μM standard Rhodamine B solution to obtain the reading of the CYP1A enzyme activity.

liver CYP1A [3] = assay: as above; details: at certain concentration (1, 10 or 100 μM)
Description: as §3, §4, §5

dermal CYP1A = assay: Dermal microsomal CYP1A enzymatic activity (7-ethoxyresorufin-O-deethylase), inhibition or enhancement; details: for inhibitory effect on dermal CYP1A activity, in words: at certain concentration (1, 10 or 100 μM); for enhancing effect on dermal CYP1A activity, in words: at certain concentrations (1, 10 or 100 μM)
Text: as §1, §2

liver CYP1A [4] = tested on: liver CYP1A
Description: as §3, §4, §5

[5] = liver microsomes, pH 7.8, probe 7-ethoxyresorufin
[6] = pH 7.8, dermal CYP1A activity (% of control group)
[7] = pH 7.8, inhibition of dermal CYP1A activity

Row | Compound | activity at 10 min, 1 µM (CYP1A [1]; pH 7.8) | activity at 10 min, 10 µM (CYP1A [1]; pH 7.8) | activity at 10 min, 100 µM (CYP1A [1]; pH 7.8) | activity at 10 min, 1 µM (CYP1A [2]; [5]) | activity at 10 min, 10 µM (CYP1A [2]; [5]) | enhancing effect on liver CYP1A activity, in words (liver CYP1A [3]) | inhibition at 10 min, 100 µM (CYP1A [1]; pH 7.8) | activity at 10 min, 100 µM (CYP1A [2]; [5]) | activity at 10 min, 1 µM (CYP1A [1]; [6]) | activity at 10 min, 10 µM (CYP1A [1]; [6]) | activity at 10 min, 100 µM (CYP1A [1]; [6]) | inhibitory effect on dermal CYP1A activity, in words (dermal CYP1A) | inhibitory effect on liver CYP1A activity, in words (liver CYP1A [3]) | other results
1 | O=c1c(-c2ccc(O)cc2)coc2cc(O)cc(O)c12 [Genistein] | 77.4% | 60.2% | 35.4% | 109% | 108% | enhancing effect | ~65% | 109% | – | – | – | inhibition effects | – | –
2 | O=c1c(-c2ccc(O)cc2)coc2cc(O[C@@H]3O[C@H](CO)[C@@H](O)[C@H](O)[C@H]3O)ccc12 [Daidzin] | 111% | 84.2% | 70.4% | 110% | 112% | enhancing effect | ~30% | 111% | – | – | – | inhibition effects | – | enhancing effect on dermal CYP1A activity, in words (dermal CYP1A): enhancing effects
3 | CC(C)[C@@H](C)/C=C/[C@@H](C)[C@H]1CC[C@H]2C3=CC=C4C[C@@H](O)CC[C@]4(C)[C@H]3CC[C@]12C [Ergosterol] | – | 57.3% | 52.2% | 103% | 104% | enhancing effect | – | 97.7% | – | – | – | – | inhibitory effects | –
4 | O=c1cc(-c2ccccc2)oc2ccc3ccccc3c12 [Beta-NF, β-naphthoflavone] | – | – | – | – | – | – | – | – | – | – | – | – | – | dermal CYP1A activity (% of control group) (dermal CYP1A; 1 µM): 27.41%; dermal CYP1A activity (% of control group) (dermal CYP1A; 10 µM): 24.00%; dermal CYP1A activity (% of control group) (dermal CYP1A; 100 µM): 3.76%; liver CYP1A activity (% of control group) (liver CYP1A [4]; 1 µM): 75.00%; liver CYP1A activity (% of control group) (liver CYP1A [4]; 10 µM): 22.78%; liver CYP1A activity (% of control group) (liver CYP1A [4]; 100 µM): 13.79%
5 | CC12CCC(CC1)C(C)(C)O2 [Cineole] | – | – | – | 117% | 99.9% | enhancing effect | – | 94.7% | 199% | 130% | 96.4% | – | inhibitory effects | inhibition at 10 min, 100 µM (CYP1A [1]; [7]): ~5%
6 | O=c1c(O[C@@H]2O[C@H](CO)[C@@H](O)[C@H](O)[C@H]2O)c(-c2ccc(O)c(O)c2)oc2cc(O)cc(O)c12 [Isoquercitrin] | – | – | – | 99% | 104% | enhancing effect | – | 95.7% | 112% | 67% | 44.2% | inhibition effects | inhibitory effects | inhibition at 10 min, 100 µM (CYP1A [1]; [7]): ~56%; enhancing effect on dermal CYP1A activity, in words (dermal CYP1A): enhancing effects
7 | CC1(C)[C@@H](O[C@H]2O[C@H](C(=O)O)[C@@H](O)[C@H](O)[C@H]2O[C@@H]2O[C@H](C(=O)O)[C@@H](O)[C@H](O)[C@H]2O)CC[C@]2(C)[C@H]3C(=O)C=C4[C@@H]5C[C@@](C)(C(=O)O)CC[C@]5(C)CC[C@@]4(C)[C@]3(C)CC[C@@H]12 [Glycyrrihizin, Glycyrrhizin] | 98.9% | 102% | 107% | 118% | 99.9% | enhancing effect | – | 89.1% | – | – | – | – | inhibitory effects | –
8 | CC(Cc1ccc(O)c(O)c1)C(C)Cc1ccc(O)c(O)c1 (centres unmarked) [Nordihydroguaiaretic acid] | 110% | 96.6% | 59.5% | 140% | 147% | enhancing effect; also recorded: most enhancing effect | ~41% | 119% | – | – | – | – | – | –
9 | COc1ccc(-c2coc3cc(O)ccc3c2=O)cc1 [Formononetin] | – | – | – | 121% | 144% | enhancing effect; also recorded: most enhancing effect | – | 145% | 67% | 109% | 85.9% | – | – | inhibition at 10 min, 1 µM (CYP1A [1]; [7]): ~33%
10 | COc1ccc(-c2cc(=O)c3c(O)cc(O[C@@H]4O[C@H](CO[C@@H]5O[C@@H](C)[C@H](O)[C@@H](O)[C@H]5O)[C@@H](O)[C@H](O)[C@H]4O)cc3o2)cc1O [Diosmin] | 64.3% | 54.3% | 32.9% | 108% | 97.3% | enhancing effect | ~67% | 43.8% | – | – | – | – | inhibitory effects | –
11 | C[C@@H]1O[C@@H](Oc2c(-c3ccc(O)c(O)c3)oc3cc(O)cc(O)c3c2=O)[C@H](O)[C@H](O)[C@H]1O [Quercitrin] | 87.8% | 77.1% | 75% | – | 104% | enhancing effect | ~25% | 89.2% | – | – | – | inhibition effects | inhibitory effects | activity at 10 min, 1 µM (CYP1A [2]; pH 7.8): 109%
12 | CC(=O)OCCCc1ccccc1 [3-Phenyl propyl acetate, 3-phenylpropyl acetate] | 28.3% | 89.4% | 85% | 151% | 143% | enhancing effect; also recorded: most enhancing effect | – | 157% | – | – | – | – | – | inhibition at 10 min, 1 µM (CYP1A [1]; pH 7.8): ~72%; enhancing effect on liver CYP1A activity, in words (liver CYP1A [3]; listed as 3-phenylpryl acetate): enhancing effect
13 | C[C@@H]1O[C@@H](OC[C@H]2O[C@@H](Oc3c(-c4ccc(O)c(O)c4)oc4cc(O)cc(O)c4c3=O)[C@H](O)[C@@H](O)[C@@H]2O)[C@H](O)[C@H](O)[C@H]1O [Rutin] | – | – | – | 117% | 124% | enhancing effect | – | 90.7% | 94.1% | 98.4% | 59.2% | inhibition effects | inhibitory effects | inhibition at 10 min, 100 µM (CYP1A [1]; [7]): ~41%; enhancing effect on dermal CYP1A activity, in words (dermal CYP1A): enhancing effects

Further lines, with some results ahead:

Row | activity at 10 min, 1 µM (CYP1A [1]; pH 7.8) | activity at 10 min, 10 µM (CYP1A [1]; pH 7.8) | activity at 10 min, 100 µM (CYP1A [1]; pH 7.8) | activity at 10 min, 1 µM (CYP1A [2]; [5]) | activity at 10 min, 10 µM (CYP1A [2]; [5]) | enhancing effect on liver CYP1A activity, in words (liver CYP1A [3]) | inhibition at 10 min, 100 µM (CYP1A [1]; pH 7.8) | activity at 10 min, 100 µM (CYP1A [2]; [5]) | activity at 10 min, 1 µM (CYP1A [1]; [6]) | activity at 10 min, 10 µM (CYP1A [1]; [6]) | activity at 10 min, 100 µM (CYP1A [1]; [6]) | Compound | inhibitory effect on dermal CYP1A activity, in words (dermal CYP1A) | inhibitory effect on liver CYP1A activity, in words (liver CYP1A [3]) | other results
14 | 72.5% | 52.7% | 75.8% | 120% | 119% | enhancing effect | – | – | – | – | – | O=c1ccc2ccc(O)cc2o1 [Umbelliferone] | – | – | inhibition at 10 min, 10 µM (CYP1A [1]; pH 7.8): ~47%
15 | – | – | – | 100% | 68.9% | – | – | 18.1% | ~34% | ~22% | 0% | O=c1c(O)c(-c2ccc(O)cc2)oc2cc(O)cc(O)c12 [Kaempferol] | – | inhibitory effects; also recorded: most inhibitory effect; also recorded: most effective inhibitors | inhibition at 10 min, 100 µM (CYP1A [1]; [7]): > 90%; dose dependence of the inhibitory effect on dermal CYP1A (dermal CYP1A): dose-dependent effect; dermal CYP1A activity (% of control group) (dermal CYP1A; nude, mouse, 10 min, 1 µM, pH 7.8): 33.73%; dermal CYP1A activity (% of control group) (dermal CYP1A; nude, mouse, 10 min, 10 µM, pH 7.8): 22.35%; inhibition at 10 min, 100 µM (CYP1A [2]; [5]): ~82%
16 | – | – | – | 94% | 99.9% | – | – | 87.3% | – | – | – | CC1(C)CC[C@]2(C(=O)O)CC[C@]3(C)C(=CC[C@@H]4[C@@]5(C)CC[C@H](O)C(C)(C)[C@@H]5CC[C@]43C)[C@@H]2C1 [Oleanolic acid] | inhibition effects | inhibitory effects | activity at 10 min, 1 µM (CYP1A [1]; skin (dermal) microsomes, pH 7.8, probe 7-ethoxyresorufin, dermal CYP1A activity (% of control group), compound 1 μM, skin microsomes, mean of at least 3 repeats): 24%; activity at 10 min, 10 µM (CYP1A [1]; skin (dermal) microsomes, pH 7.8, probe 7-ethoxyresorufin, dermal CYP1A activity (% of control group), compound 10 μM, skin microsomes, mean of at least 3 repeats): 25.7%; activity at 10 min, 100 µM (CYP1A [1]; skin (dermal) microsomes, pH 7.8, probe 7-ethoxyresorufin, dermal CYP1A activity (% of control group), compound 100 μM, skin microsomes, mean of at least 3 repeats): 46.7%; inhibition at 10 min, 1 µM (CYP1A [1]; skin (dermal) microsomes, pH 7.8, probe 7-ethoxyresorufin, inhibition of dermal CYP1A activity, compound 1 μM): ~76%
17 | – | – | – | 119% | 123% | enhancing effect | – | 107% | 138% | 121% | 102% | O=C(O)c1ccc(O)c(O)c1 [Protocatechuic acid] | – | – | –
18 | 67.9% | 41.9% | 8.37% | 114% | 86.7% | enhancing effect | ~92% | 19.2% | – | – | – | O=c1c(O)c(-c2ccc(O)c(O)c2)oc2cc(O)cc(O)c12 [Quercetin] | – | inhibitory effects; also recorded: most inhibitory effect; also recorded: most effective inhibitors | –
19 | 88.2% | 97.2% | 52.4% | 113% | 115% | enhancing effect | ~48% | 101% | – | – | – | CCCCCCCCCCCCO [Lauryl alcohol] | – | – | –
